From paper PMC4121215, “Cytotoxic Constituents from the Rhizomes of Curcuma zedoaria” (The Scientific World Journal, 2014)
In brackets after ≈: the same amount, converted by molar mass.

Experiments:
Assay type in all cases: cell-based
PC-3 (prostate cancer) = test: MTT cytotoxicity assay, PC-3; conditions: for IC50: Homo sapiens, MTT, 72 h, mean ± SD of three replicates; for IC50 / SI (selectivity index) PC-3: isolated compounds; for SI (selectivity index) PC-3: IC50 HUVEC / IC50 PC-3
Experimental: (§1) The human cell lines MCF-7 (breast cancer), Ca Ski (cervical cancer), and HT-29 (colon cancer) were cultured as monolayer in RPMI 1640 growth media. HUVEC (human umbilical vein endothelial cells) and PC-3 (prostate cancer) cells were cultured in DMEM. All cells were purchased from the American Tissue Culture Collection (ATCC, USA) except for human umbilical vein endothelial cells (HUVEC) which were obtained from ScienCell Research Laboratories (Carlsbad, CA). All the media were supplemented with 10% v/v foetal bovine serum (FBS), 100 μg/mL penicillin/streptomycin, and 50 μg/mL amphotericin B. The cells were cultured in a 5% CO2 incubator at 37°C.
(§2) Cell viability was investigated using 3-(4, 5-dimethylthiazol-2-yl)-2, 5-diphenyltetrazolium bromide (MTT) assay. Cells were detached from the […] tissue culture flask when it achieved 80% confluency. The detached cells were pellet by centrifugation (1,000 rpm; 5 minutes). Cells (3.0 × 10^4 cells/mL) were seeded onto a 96-well microtiter plate (Nunc). The cells were incubated at 37°C CO2 incubator for 24 h to give adherent cells. The test compounds (1–100 μg/mL) were added onto the 96-well microtiter plate containing adherent cells. The untreated cells were incubated in 10% media containing 0.5% DMSO (without addition of any test compounds/extracts). This mixture was regarded as the negative control whereas doxorubicin as the positive control. The plates were incubated for 72 h at 37°C in a 5% CO2 incubator. After 72 h, the media were removed and 100 μL of fresh medium and 20 μL of MTT (Sigma, filter sterile, 5 mg/mL) were added to each well and further incubated for 4 hours (37°C) after which the media were substituted with 150 μL DMSO. The 96-well microtiter plates were then agitated at room temperature onto an incubator shaker to dissolve the formazan crystals. The absorbance (A) of the content of the plates was measured at 540 nm using a microplate reader. The percentage of inhibition of each test sample was calculated according to the following formula: Percentage of inhibition (%) = (A control − A sample)/A control × 100%. The average of three replicates was then obtained. The IC50 for each extract was extrapolated from the graphs of the percentage inhibition versus concentration of test agents. Cytotoxicity of each test agent is expressed as IC50 value. The IC50 value is the concentration of test agents that cause 50% inhibition or cell death, averaged from the three experiments. The selectivity index (SI) was also calculated as described by using the ratio between IC50 of the extract or compounds on normal cell lines (HUVEC) and IC50 of the tested extract or compounds on cancerous cell lines. Selectivity index (SI) values equal or greater than three were considered to have a high selectivity towards cancerous cells. An SI value denotes the selectivity of the sample to the tested cell lines.

HT-29 (colon cancer) = test: MTT cytotoxicity assay, HT-29; conditions: for IC50: Homo sapiens, HT-29, MTT, 72 h, mean ± SD of three replicates; for IC50 / SI (selectivity index) HT-29: isolated compounds; for SI (selectivity index) HT-29: IC50 HUVEC / IC50 HT-29
Experimental: as §1, §2

[1] = test system: HUVEC (human umbilical vein endothelial cells); test: cells; conditions: for IC50: Homo sapiens, HUVEC, isolated compounds, MTT, 72 h, normal cells
Experimental: as §1, §2

MCF-7 (breast cancer) = test: cells; conditions: for IC50: Homo sapiens, MCF7, MTT, 72 h, mean ± SD of three replicates; for IC50 / SI (selectivity index) MCF-7: isolated compounds; for SI (selectivity index) MCF-7: IC50 HUVEC / IC50 MCF-7
Experimental: as §1, §2

Ca Ski (cervical cancer) = test: cells
Experimental: as §1, §2

## CC1=CCCC2(C)OC2CC(=C(C)C)C(=O)C1 (stereo not drawn) [Compound 12, germacrone-4,5-epoxide]
PC-3 (prostate cancer)
  IC50: 43.9 ± 7.2 µg/mL (≈ 187 µM)
  SI (selectivity index) PC-3: 1.1
HT-29 (colon cancer)
  IC50: 39.6 ± 4.6 µg/mL (≈ 169 µM)
  SI (selectivity index) HT-29: 1.2
[1]
  IC50: 48.4 ± 4.7 µg/mL (≈ 207 µM)
MCF-7 (breast cancer)
  IC50: 37.2 ± 4 µg/mL (≈ 159 µM)
  SI (selectivity index) MCF-7: 1.3

## C=C1CC[C@H]2C(C)(C)CCC[C@]2(C)[C@H]1C/C=C(/C=O)CC(OC)OC [Compound 13, calcaratarin A]
PC-3 (prostate cancer)
  IC50: 41.7 ± 3.4 µg/mL (≈ 120 µM)
  SI (selectivity index) PC-3: 1.1
HT-29 (colon cancer)
  IC50: 48.3 ± 5.1 µg/mL (≈ 139 µM)
  SI (selectivity index) HT-29: 1.0
[1]
  IC50: 47.3 ± 4.2 µg/mL (≈ 136 µM)
MCF-7 (breast cancer)
  IC50: 62.5 ± 4.8 µg/mL (≈ 179 µM)
  SI (selectivity index) MCF-7: 0.8

## C=C1CC(=O)C(=C(C)C)C[C@H]2[C@H]1CC[C@]2(C)O [Compound 14, isoprocurcumenol]
PC-3 (prostate cancer)
  IC50: 37.4 ± 4.5 µg/mL (≈ 160 µM)
  SI (selectivity index) PC-3: 1.2
HT-29 (colon cancer)
  IC50: 51.6 ± 3.9 µg/mL (≈ 220 µM)
  SI (selectivity index) HT-29: 0.9
[1]
  IC50: 45.1 ± 3 µg/mL (≈ 192 µM)
MCF-7 (breast cancer)
  IC50: 58.8 ± 4.2 µg/mL (≈ 251 µM)
  SI (selectivity index) MCF-7: 0.8

## CC(C)=C1C/C=C(\C)CC[C@H]2O[C@@]2(C)CC1=O [Compound 15, germacrone-1,10-epoxide]
PC-3 (prostate cancer)
  IC50: 53.2 ± 4.9 µg/mL (≈ 227 µM)
  SI (selectivity index) PC-3: 1.0
HT-29 (colon cancer)
  IC50: 72.8 ± 8.3 µg/mL (≈ 311 µM)
  SI (selectivity index) HT-29: 0.8
[1]
  IC50: 55.5 ± 1.6 µg/mL (≈ 237 µM)
MCF-7 (breast cancer)
  IC50: 61.2 ± 5.8 µg/mL (≈ 261 µM)
  SI (selectivity index) MCF-7: 0.9

## C=C(C)[C@@H]1CC[C@H](C)[C@]12CC(=C(C)C)C(=O)O2 [Compound 17, curcumanolide A]
PC-3 (prostate cancer)
  IC50: 18.8 ± 2.4 µg/mL (≈ 80.2 µM)
  SI (selectivity index) PC-3: 1.2
PC-3 (prostate cancer); MTT assay
  antiproliferative/cytotoxic activity against PC-3 (in words): moderate inhibitory activity
HT-29 (colon cancer)
  IC50: 21.3 ± 3.2 µg/mL (≈ 90.9 µM)
  SI (selectivity index) HT-29: 1.0
HT-29 (colon cancer); MTT assay
  antiproliferative/cytotoxic activity against HT-29 (in words): moderate inhibitory activity
[1]
  IC50: 21.7 ± 7 µg/mL (≈ 92.6 µM)
MCF-7 (breast cancer)
  IC50: 29.8 ± 3.1 µg/mL (≈ 127 µM)
  SI (selectivity index) MCF-7: 0.7

## C=C(C)C(=O)C[C@]12OC(=O)C=C(C)[C@@H]1CC[C@@H]2C [Compound 18, curcuzedoalide]
PC-3 (prostate cancer)
  IC50: 62.1 ± 8.1 µg/mL (≈ 250 µM)
  SI (selectivity index) PC-3: 0.7
HT-29 (colon cancer)
  IC50: 58.2 ± 3.5 µg/mL (≈ 234 µM)
  SI (selectivity index) HT-29: 0.8
[1]
  IC50: 45.3 ± 7.8 µg/mL (≈ 182 µM)
MCF-7 (breast cancer)
  IC50: 49.8 ± 3.6 µg/mL (≈ 201 µM)
  SI (selectivity index) MCF-7: 0.9

## Cc1cc2oc(=O)c(C)c-2cc2c1CC[C@@H]2C [Compound 19, gweicurculactone]
PC-3 (prostate cancer)
  IC50: 38.3 ± 2.2 µg/mL (≈ 168 µM)
  SI (selectivity index) PC-3: 1.9
HT-29 (colon cancer)
  IC50: 35.7 ± 5.8 µg/mL (≈ 156 µM)
  SI (selectivity index) HT-29: 2.0
[1]
  IC50: 71.7 ± 6.1 µg/mL (≈ 314 µM)
MCF-7 (breast cancer)
  IC50: 31.2 ± 3.2 µg/mL (≈ 137 µM)
  SI (selectivity index) MCF-7: 2.3

## COc1cccc2c1C(=O)c1c(O)c3c(c(O)c1C2=O)C[C@@](O)(C(=O)CO)C[C@@H]3O[C@H]1C[C@H](N)[C@H](O)[C@H](C)O1 [doxorubicin, reference compound]
[1]
  IC50: 1.4 µg/mL (≈ 2.58 µM)
Ca Ski (cervical cancer); Homo sapiens, Ca-Ski, isolated compounds, MTT, 72 h, mean ± SD of three replicates
  IC50: 0.2 ± 1 µg/mL (≈ 0.368 µM)
MCF-7 (breast cancer)
  IC50: 0.1 µg/mL (≈ 0.184 µM)

## Hexane
[1]
  toxicity towards normal cells HUVEC (in words): low toxicity
Ca Ski (cervical cancer)
  antiproliferative/cytotoxic activity against Ca Ski (in words): high inhibitory activity
MCF-7 (breast cancer)
  antiproliferative/cytotoxic activity against MCF-7 (in words): high inhibitory activity
